Measured values taken from patent US20120238532A1, “TREATMENT OF HUMAN OSTEOSARCOMA” (CEDARS-SINAI MEDICAL CENTER, priority 2009, published 2012).

Experiments:
ERK protein = molecular target: T1, ERK protein (Homo sapiens, UniProt P28482); assay: DARTS analysis, ERK; type: binding; details: MG-63 lysates; data not shown
T1 construct: confluent MG-63 cells were harvested and lysed with lysis buffer; endogenous in cells; host or cells: MG-63 whole-cell lysate

S6K and 4EBP1 = assay: Western blotting, downstream targets of mTOR; type: cell-based, human; details: MG-63 and SAOS-2 cells
Method: (§1) Changes in protein level by CuB were checked by Western blotting. […] After 2, 9, and 20 hours of exposure, cells were harvested and immediately lysed with RIPA buffer (Millipore—Upstate, Temecula, Calif.) supplemented with protease inhibitor cocktail (Roche, San Francisco, Calif.), 0.5 mM PMSF (Roche), and 50 mM NaF (Sigma). After 20 minutes of incubation on ice, protein concentrations were measured by Bradford assay with Bio Rad protein assay solution (Bio-Rad, Hercules, Calif.) and samples were adjusted to the same protein concentration. Samples were mixed with 2× Laemmli sample buffer (Bio-Rad) with 5% β-mercaptoethanol (Sigma) and incubated at 95° C. for 10 min to denature the protein. After brief incubation on ice, proteins were separated by SDS-PAGE, transferred to nitrocellulose membrane (Sigma), and blotted with antibodies from either Cell Signaling Technology (Danvers, Mass.) or Santa Cruz Biotechnology (Santa Cruz, Calif.). Target proteins were visualized by Supersignal West Dura Substrate (Thermo-Pierce, Rockford, Ill.). GAPDH protein was used as a loading control.

[1] = test system: cyclin A and cyclin-dependent kinase inhibitor 1 (p21^WAF1); assay: Western blotting, cyclin A and p21^WAF1; type: cell-based, human; details: MG-63 and SAOS-2 cells
Method: as §1

cyclin D1 = assay: Western blotting, cyclin D1; type: cell-based, human; details: MG-63 cells
Method: as §1

[2] = test system: poly ADP-ribose polymerase (PARP); assay: Western blotting, PARP cleavage; type: cell-based, human; details: MG-63 and SAOS-2 cells
Method: as §1

MG-63 xenografts = assay: Growth of MG-63 xenografts in athymic nude mice; type: in vivo
Method: All animal experiments strictly followed the guidelines of Cedars-Sinai Medical Center and the National Institute of Health (NIH). Female nu/nu athymic nude mice (5-6 weeks old; average weight 21 g; specific pathogen-free) from Harlan Laboratories (Indianapolis, Ind.) were maintained in pathogen-free condition with sterilized chow and water. 5×10^6 cells of MG-63 cells were mixed with 200 μl of Matrigel solution (BD Biosciences) per injection, and the mixture was injected subcutaneously on the upper flanks of nude mice. After 24 hours, tumor size was measured, and any outliers were ruled out by one-way analysis of variance (ANOVA) test. […] The conversion was made using dose translation formula by Reagan-Shaw et al., (15). […] Body weights were monitored every 2 days. Tumor size was measured every 2 days, and the tumor volume was calculated using the following formula: A (length)×B (width)×C (height)×0.5236 (16). The experiment was stopped at day 35, and all mice were sacrificed. The presence of metastatic spread was examined macroscopically at the time of autopsy followed by histological examination. At least two tumors from each group were snap-frozen in liquid nitrogen for Western blotting.

[3] = Body weight and side-effects during xenograft treatment; type: in vivo, mice; details: week 1, returned to normal in subsequent weeks
Method: All animal experiments strictly followed the guidelines of Cedars-Sinai Medical Center and the National Institute of Health (NIH). Female nu/nu athymic nude mice (5-6 weeks old; average weight 21 g; specific pathogen-free) from Harlan Laboratories (Indianapolis, Ind.) were maintained in pathogen-free condition with sterilized chow and water. 5×10^6 cells of MG-63 cells were mixed with 200 μl of Matrigel solution (BD Biosciences) per injection, and the mixture was injected subcutaneously on the upper flanks of nude mice. After 24 hours, tumor size was measured, and any outliers were ruled out by one-way analysis of variance (ANOVA) test. […] The dose of LD-MTX was the murine equivalent of the human dose of LD-MTX. The conversion was made using dose translation formula by Reagan-Shaw et al., (15). […] Body weights were monitored every 2 days. Tumor size was measured every 2 days, and the tumor volume was calculated using the following formula: A (length)×B (width)×C (height)×0.5236 (16). The experiment was stopped at day 35, and all mice were sacrificed. The presence of metastatic spread was examined macroscopically at the time of autopsy followed by histological examination. At least two tumors from each group were snap-frozen in liquid nitrogen for Western blotting.

Serum chemistry in mice = type: in vivo; details: day 35
Method: Whole blood samples were obtained by submandibular bleeding and serum samples were harvested with serum separator tubes (BD Biosciences). Blood count and serum chemistry results were obtained by the Hemagen Analyst Benchtop Chemistry System (Hemagen Diagnostics, Inc. Columbia, Md.). Colony-forming cell (CFC) assays were performed as previously described (18).

mTOR [4] = molecular target: T2, mTOR (Homo sapiens, UniProt P42345); assay: Western blotting, mTOR phosphorylation; type: cell-based; parameters: endogenous in cells; host or cells: MG-63 and SAOS-2 cells; details: MG-63 and SAOS-2 cells; at ED50, 2, 9, or 20 hours
Method: as §1

mTOR [5] = molecular target: T2, mTOR; assay: DARTS analysis, mTOR; type: binding; parameters: endogenous in cells; host or cells: MG-63 whole-cell lysate; details: MG-63 whole-cell lysates; 10, 100, or 1000 nM, 30 min
Method: Direct interaction of CuB and mTOR was assessed by DARTS as described in the original article with some modifications (14). Briefly, confluent MG-63 cells were harvested and lysed with lysis buffer (1% Triton X-100, 150 mM NaCl. 100 mM Tris-HCl, pH 7.4, 1 mM EDTA, and 1 mM EGTA, pH 8.0) supplemented with protease inhibitor (Roche, San Francisco, Calif.), 0.2 mM PMSF (Roche), and 0.2 mM Na3VO4 (Sigma). Cell lysates were incubated with 0.1 volume of increasing concentrations (10-1000 nM) of either DMSO or CuB at room temperature for 30 min. Lysates were then proteolyzed with thermolysin (Sigma) at room temperature for 3 min. Reaction was stopped by adding 0.5 M EDTA solution and 2× Laemmli sample buffer (Bio-Rad, Hercules, Calif.) with 5% β-mercaptoethanol (Sigma). Western blotting was performed as described below.

T1 sequence (P28482 2-360 limits assumed): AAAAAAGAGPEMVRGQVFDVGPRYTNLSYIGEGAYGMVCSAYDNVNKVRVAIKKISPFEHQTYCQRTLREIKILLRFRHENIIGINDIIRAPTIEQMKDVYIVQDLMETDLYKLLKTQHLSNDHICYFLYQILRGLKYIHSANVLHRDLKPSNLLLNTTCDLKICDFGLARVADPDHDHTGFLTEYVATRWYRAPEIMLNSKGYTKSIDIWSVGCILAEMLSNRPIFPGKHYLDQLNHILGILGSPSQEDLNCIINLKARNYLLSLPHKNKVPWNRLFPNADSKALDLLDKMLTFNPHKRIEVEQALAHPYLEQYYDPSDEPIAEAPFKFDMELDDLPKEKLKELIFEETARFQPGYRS

## CC(=O)OC(C)(C)/C=C/C(=O)[C@](C)(O)[C@H]1[C@H](O)C[C@@]2(C)[C@@H]3CC=C4[C@H](C[C@H](O)C(=O)C4(C)C)[C@]3(C)C(=O)C[C@]12C [CuB, cucurbitacin B]
ERK protein
  protection of ERK protein (DARTS): could not find any evidence that the ERK protein was protected by CuB
S6K and 4EBP1
  downstream targets of mTOR (S6K, 4EBP1): Inhibition of downstream targets of mTOR such as S6K and 4EBP1
[1]
  protein levels of cyclin A and p21^WAF1: increased the protein levels of cyclin A and cyclin-dependent kinase inhibitor 1 (p21^WAF1) in both cells
Cyclin D1
  levels of cyclin D1: Decrease in the levels of cyclin D1 occurred in MG-63
[2]
  PARP cleavage: showed cleavage of the precursor molecules in both cells
MG-63 xenografts; HD-CuB 1.0 mg/kg alone
  tumor growth inhibition: strong growth inhibition
MG-63 xenografts; LD-CuB 0.5 mg/kg, single agent
  tumor volume: allowed the tumor volume to increase slightly from its original size
[3]; HD-CuB 1.0 mg/kg
  initial weight loss: up to 5%
[3]; LD-CuB 0.5 mg/kg
  initial weight loss: up to 5%
Serum chemistry in mice; HD-CuB 1.0 mg/kg
  CK: 156.0 ± 33.9 U/l
  albumin: 3.4 ± 0.1 g/dL
  bilirubin: 0.06 ± 0.00 mg/dL
  cholesterol: 172.0 ± 8.5 mg/dL
  creatine: 0.42 ± 0.25 mg/dL
  globulin: 1.6 ± 0.2 g/dL
  total protein: 5.0 ± 0.1 g/dL
  uric acid: 5.5 ± 0.6 mg/dL
Serum chemistry in mice; LD-CuB 0.5 mg/kg
  CK: 140.5 ± 70.0 U/l
  albumin: 3.1 ± 0.1 g/dL
  bilirubin: 0.09 ± 0.04 mg/dL
  cholesterol: 147.0 ± 5.7 mg/dL
  creatine: 0.29 ± 0.05 mg/dL
  globulin: 0.7 ± 0.9 g/dL
  total protein: 3.7 ± 1.0 g/dL
  uric acid: 3.7 ± 0.3 mg/dL
mTOR [4]
  mTOR phosphorylation at S2448 and S2481: inhibition of mTOR phosphorylation at S2448 and S2481 without affecting the total level of mTOR
mTOR [5]
  protection of mTOR protein from thermolysin proteolysis (DARTS): dose-dependent protection of mTOR protein from thermolysin proteolysis
